From US5219740A, “Retroviral gene transfer into diploid fibroblasts for gene therapy” (Fred Hutchinson Cancer Research Center, priority 1987, dated 1993)

What was measured:
HDF 1-85 = assay: Drug concentration needed for complete cell killing; assay type: cell-based, human; conditions: Newborn HDF 1-85, scored after 10 days
Experimental: (§1) Three drugs were tested for their ability to kill human diploid fibroblasts (HDF): the neomycin analogue G418, Hygromycin-B (Hygro), and Methotrexate (Mtx). Four HDF lines were isolated from skin biopsies of normal human donors: HDF 78-18, from a […] fetus; HDF 1-85, from newborn foreskin; HDF 79-81, from a person; and HDF 72-46, from a person. The four fibroblast lines were isolated using standard methods (Meth. Cell Biol. 219:255-276, 1980, hereby incorporated by reference) and were maintained in culture for 22 to 31 population doublings using Dulbecco-Vogt Modified Eagles Medium (D MEM) supplemented with 10% fetal bovine serum (FBS). NIH 3T3 immortalized mouse fibroblasts served as a control.
(§2) Cells were seeded at 10^4 per 3.5-cm dish in D MEM plus 10% FBS and drug, except for Mtx selection where 10% dialyzed FBS was used. Drug-resistant cells were scored after 10 days.

HDF 72-46 = assay: as above; assay type: cell-based, human; conditions: Adult HDF 72-46, scored after 10 days
Experimental: as §1, §2

HDF 78-18 = assay: as above; assay type: cell-based, human; conditions: for Drug Concentrations Needed For Complete Cell Killing: Fetal HDF 78-18, scored after 10 days
Experimental: as §1, §2

HDF 79-81 = assay: as above; assay type: cell-based, human; conditions: Adult HDF 79-81, scored after 10 days
Experimental: as §1, §2

NIH 3T3 = assay: as above; assay type: cell-based, mouse; conditions: for Drug Concentrations Needed For Complete Cell Killing: Mouse NIH 3T3, scored after 10 days
Experimental: as §1, §2

[1] = tested on: human diploid fibroblast cell lines; assay: Drug killing, summary over HDF lines; assay type: cell-based
Experimental: as §1, §2

SF03 cells = assay: Adenosine killing of ADA-deficient fibroblasts; assay type: cell-based, human
Text: (§3) Referring to FIG. 5, the ADA vector LNSAL was made by inserting an ADA cDNA (Valerio, D., et al., Gene 31:147-153, 1984) linked to a SV40 early region enhancer/promoter downstream of the neo gene in N2. Helper-free virus was made by introduction of LNSAL into PA317 amphotropic retrovirus-packaging cells (ATCC No. CRL 9078), as described in Mol. Cell. Biol. 6:2895-2902, 1986, hereby incorporated by reference. […] Using either G418 or adenosine, the expression of either neo and the ADA gene was assayed in LNSAL-infected cells.

[2] = tested on: normal human diploid fibroblasts; assay: Adenosine effect on normal fibroblasts; assay type: cell-based; conditions: 2 mM
Text: as §3

CN(Cc1cnc2nc(N)nc(N)c2n1)c1ccc(C(=O)N[C@@H](CCC(=O)O)C(=O)O)cc1 [Mtx, Methotrexate]
Drug Concentrations Needed For Complete Cell Killing (HDF 1-85; 10% dialyzed FBS): > 1000 µM | Drug Concentrations Needed For Complete Cell Killing (HDF 72-46; 10% dialyzed FBS): > 1000 µM | Drug Concentrations Needed For Complete Cell Killing (HDF 78-18; 10% dialyzed FBS): > 1000 µM | colony formation at the highest concentration of Mtx used (HDF 78-18; HDF 78-18, viable cells remained after 15 days of selection): did not form colonies | Drug Concentrations Needed For Complete Cell Killing (HDF 79-81; 10% dialyzed FBS): > 10 µM | Drug Concentrations Needed For Complete Cell Killing (NIH 3T3; 10% dialyzed FBS): 0.1 µM | concentration that efficiently killed the cells (NIH 3T3; NIH 3T3 cells): 10^-7 M | colony formation at the highest concentration of Mtx used ([1]; all HDF lines with the exception of HDF 78-18): formed colonies | concentration to which the cell lines were resistant to killing ([1]; human diploid fibroblast cell lines): > 10^-5 M | concentration to which the cell lines were resistant to killing ([1]; most human diploid fibroblast cell lines): more than 10^-3 M

CNC1C(O)C(OC2C(N)CC(N)C(OC3OC(C(C)O)C(O)C(O)C3N)C2O)OCC1(C)O (centres unmarked) [Vector G418]
Drug Concentrations Needed For Complete Cell Killing (HDF 1-85; weight of dry powder): 500 µg/mL | Drug Concentrations Needed For Complete Cell Killing (HDF 72-46; weight of dry powder): 500 µg/mL | Drug Concentrations Needed For Complete Cell Killing (HDF 78-18; weight of dry powder): 500 µg/mL | Drug Concentrations Needed For Complete Cell Killing (HDF 79-81; weight of dry powder): 1000 µg/mL | Drug Concentrations Needed For Complete Cell Killing (NIH 3T3; weight of dry powder): 1000 µg/mL

Nc1ncnc2c1ncn2[C@@H]1O[C@H](CO)[C@@H](O)[C@H]1O [adenosine]
concentration that kills the cells (SF03 cells): 2 mM | effect on the cells [2]: no effect
